Measurements as given in patent publication US20260027119A1, “INHIBITORS OF CALCIUM/CALMODULIN-DEPENDENT PROTEIN KINASE II AND THEIR USES” (priority 2022, published 2026).

Experiments:
[1] = system: constitutively active human CaMKIIδ (cardiac isoform); experiment: High-throughput CaMKAR screen in stable human cell line expressing CaMKAR and constitutively active human CaMKIIδ; format: cell-based
Excerpt: (§1) FIG. 1A, FIG. 1B, FIG. 1C, and FIG. 1D show high-throughput screening to identify CaMKII inhibitors. A stable human cell line that expresses CaMKAR and constitutively active human CaMKIIδ (cardiac isoform) was developed. […] In these cells, the JHDLv3 library, which contains 4,475 compounds that are approved for human use, was screened (FIG. 1B). This primary screen identified 118 candidate compounds, which were subscreened using a CaMKAR in vitro assay (FIG. 1C). Validation of these hits in HEK293 cells and by a third-party laboratory led to five potent inhibitors.
(§2) In some embodiments, the presently disclosed subject matter provides a CaMKII activity biosensor, referred to herein as a CaMKII Activity Reporter (CaMKAR), that is tractable for high-throughput screens. Using this sensor, a library of compounds that are safe for human use (i.e., Food and Drug Administration (FDA)-, European Medicines Agency (EMA)-, China Food and Drug Administration (CFDA)-, and Pharmaceuticals and Medical Devices Agency (PMDA)-approved compounds) was screened for previously unidentified CaMKII inhibitors.

[2] = system: constitutively active CaMKIIδ; experiment: CaMKII inhibition in HEK293 cells expressing constitutively active CaMKIIδ; format: cell-based
Excerpt: as §1

CaMKII [3] = experiment: CaMKII activation in cardiomyocytes stimulated by field pacing (simulated tachycardia); format: cell-based
Excerpt: FIG. 4A, FIG. 4B, and FIG. 4C show compounds that inhibit CaMKII in cardiomyocytes. CaMKII is stimulated in cardiac cells by simulating tachycardia with field pacing. […] When drug concentration is adjusted to match their respective maximum human plasma concentration, four out of the five compounds were able to ameliorate CaMKII (FIG. 4B, FIG. 4C).
as §2

CaMKII [4] = molecular target: CaMKII (Homo sapiens, UniProt Q13557); experiment: CaMKAR in vitro assay (subscreen of primary hits); format: biochemical
Excerpt: as §1

Sequence of CaMKII (Homo sapiens, UniProt Q13557) (Q13557 whole entry): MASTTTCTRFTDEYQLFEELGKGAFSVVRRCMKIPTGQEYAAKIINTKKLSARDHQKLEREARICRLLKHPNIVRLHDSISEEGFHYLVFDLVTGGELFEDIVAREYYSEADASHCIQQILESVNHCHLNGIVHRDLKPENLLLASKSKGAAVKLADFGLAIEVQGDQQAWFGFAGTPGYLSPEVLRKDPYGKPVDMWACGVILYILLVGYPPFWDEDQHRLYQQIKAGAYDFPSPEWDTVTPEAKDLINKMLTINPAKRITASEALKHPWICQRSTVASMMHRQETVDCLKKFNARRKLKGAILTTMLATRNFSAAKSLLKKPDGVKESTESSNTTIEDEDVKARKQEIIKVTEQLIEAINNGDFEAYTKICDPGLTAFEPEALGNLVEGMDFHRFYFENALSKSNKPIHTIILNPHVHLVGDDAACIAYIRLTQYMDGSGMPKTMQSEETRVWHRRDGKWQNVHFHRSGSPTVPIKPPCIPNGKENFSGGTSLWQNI

SMILES	Inhibition of cardiac CaMKII (CaMKIIδ) in human cells ([1]; human cells)	Potency of CaMKII inhibition relative to tool inhibitor AS100397 [2]	CaMKII activity in rat cardiac cells (CaMKII [3])	CaMKII inhibition reported by CaMKAR in primary screen cell line ([1]; stable human cell line expressing CaMKAR and constitutively active human CaMKIIδ)	CaMKII inhibition in CaMKAR in vitro assay (CaMKII [4])
CCS(=O)(=O)N1CC(CC#N)(n2cc(-c3ncnc4[nH]ccc34)cn2)C1 [Baricitinib]	potently inhibited	more potent	prevented CaMKII activity	–	–
CN[C@@H]1C[C@H]2O[C@@](C)([C@@H]1OC)n1c3ccccc3c3c4c(c5c6ccccc6n2c5c31)C(=O)NC4 [Staurosporine]	–	–	–	recovered	recovered
